{
  "source": "patent US5061690A",
  "about": "“Method for increasing milk production in mammals and/or increasing the birth weight of their newborn and improving postnatal growth” (Institut National de la Recherche Agronomique, priority 1987, dated 1991)",
  "molecules": {"B1": {"name": "bGH: bovine growth hormone obtained by genetic recombination (protein, UniProt P01246 27-217, looked up)", "Somatotropin": "AFPAMSLSGLFANAVLRAQHLHQLAADTFKEFERTYIPEGQRYSIQNTQVAFCFSETIPAPTGKNEAQQKSDLELLRISLLLIQSWLGPLQFLSRVFTNSLVFGTSDRVYEKLKDLEEGILALMRELEDGTPRAGQILKQTYDKFDTNMRSDDALLKNYGLLSCFRKDLHKTETYLRVMKCRRFGEASCAF"}},
  "key": {"gravid ewes [1]": {"test_system": "gravid ewes", "experiment": "OGH (growth hormone) assay in gravid ewes given hGRF (1-29) at the end of gestation", "assay_type": "in vivo", "details": "batch B", "experimental": "30 gravid ewes which were at the 135th day of gestation were distributed in two batches of 15 ewes each, account being taken of the number of fetuses assumed to be present in the uteri and of the earlier milk outputs, all the ewes being multiparous. Batch A, which receives no treatment, serves as control batch. Batch B receives 1.5 mg of hGRF (1-29) (equivalent to approximately 20 μg per kg of body weight) subcutaneously twice daily, at 8.00 hours and 14.00 hours, from day 137 of gestation up to the day of littering (which varied between day 145 and day 147, depending on the ewe). The administration of hGRF (1-29) is stopped as soon as parturition takes place. In all the animals, lambing is induced by the administration of 9 α-fluoro-11β,17α,21-trihydroxy-16α-methyl-1,4-pregnadiene-3,20-dione (proposed under the INN of dexamethasone) on the basis of 16 mg intramuscularly at 20.00 hours on day 144 of gestation. […] This discharge is the same in nature after the morning injection and after that of the afternoon. […] This is shown in FIG. 1 of the attached drawings, which represents the OGH hormone assay in terms of the time of day (mean over 15 ewes) on day 138 and on day 146 of gestation."}, "multiparous gravid ewes [2]": {"test_system": "multiparous gravid ewes", "experiment": "hGRF (1-29) on completion of two-thirds and/or at end of gestation in ewes: milk production", "assay_type": "in vivo", "experimental": "48 multiparous gravid ewes were distributed in four batches of 12 ewes each, account being taken of the earlier milk productions and of the anticipated parity (OCS--Ovine Chorionic Somatotropin--assay). The first batch forms the control batch, the ewes receiving no treatment. The other three batches receive 1.5 mg of hGRF (1-29) subcutaneously twice daily; from day 105 to day 115 of gestation for the second batch, which will be designated hereinafter as batch \"GRF1\"; from day 137 of gestation to littering for the third batch, which will be designated hereinafter as batch \"GRF2\"; and from day 105 to day 115 of gestation and from day 137 of gestation to littering for the fourth batch, which will be designated hereinafter as batch \"GRF1+2\". As in the above study, the administration of hGRF (1-29) is stopped as soon as parturition takes place, and lambing is induced by the administration of dexamethasone on day 145 of gestation, under the conditions described above. After parturition, the milk production of the ewes was measured twice daily, and the growth of the lambs, which received an artificial milk-feed supplied \"ad libitum\", was followed, the lambs receiving no growth adjuvant treatment. After a variance analysis, taking the earlier production as covariable, and after correction taking into account the parity (number of lambs per pregnancy) during the lactation in progress and during the reference lactation, the results for the milk production were compared between the control batches and batches \"GRF1\" and \"GRF2\". From the results obtained over five weeks of lactation, the curves of FIGS. 4 and 5 were plotted, the source data being reported in Table 2 below."}, "gravid ewes [3]": {"test_system": "gravid ewes", "assay_type": "in vivo", "experimental": "30 gravid ewes which were at the 135th day of gestation were distributed in two batches of 15 ewes each, account being taken of the number of fetuses assumed to be present in the uteri and of the earlier milk outputs, all the ewes being multiparous. Batch A, which receives no treatment, serves as control batch. Batch B receives 1.5 mg of hGRF (1-29) (equivalent to approximately 20 μg per kg of body weight) subcutaneously twice daily, at 8.00 hours and 14.00 hours, from day 137 of gestation up to the day of littering (which varied between day 145 and day 147, depending on the ewe). The administration of hGRF (1-29) is stopped as soon as parturition takes place. In all the animals, lambing is induced by the administration of 9 α-fluoro-11β,17α,21-trihydroxy-16α-methyl-1,4-pregnadiene-3,20-dione (proposed under the INN of dexamethasone) on the basis of 16 mg intramuscularly at 20.00 hours on day 144 of gestation. The birth weights of the lambs born of mothers of the two batches A and B were compared."}, "multiparous gravid ewes [4]": {"test_system": "multiparous gravid ewes", "experiment": "hGRF (1-29) on completion of two-thirds and/or at end of gestation in ewes: birth weight and growth of lambs", "assay_type": "in vivo", "details": "for Weight of the Lambs at 30 days: control 12.12 ± 0.7 kg", "experimental": "48 multiparous gravid ewes were distributed in four batches of 12 ewes each, account being taken of the earlier milk productions and of the anticipated parity (OCS--Ovine Chorionic Somatotropin--assay). The first batch forms the control batch, the ewes receiving no treatment. The other three batches receive 1.5 mg of hGRF (1-29) subcutaneously twice daily; from day 105 to day 115 of gestation for the second batch, which will be designated hereinafter as batch \"GRF1\"; from day 137 of gestation to littering for the third batch, which will be designated hereinafter as batch \"GRF2\"; and from day 105 to day 115 of gestation and from day 137 of gestation to littering for the fourth batch, which will be designated hereinafter as batch \"GRF1+2\". As in the above study, the administration of hGRF (1-29) is stopped as soon as parturition takes place, and lambing is induced by the administration of dexamethasone on day 145 of gestation, under the conditions described above. After parturition, the milk production of the ewes was measured twice daily, and the growth of the lambs, which received an artificial milk-feed supplied \"ad libitum\", was followed, the lambs receiving no growth adjuvant treatment. The analysis concerned only twin lambs, distributed as follows: At the age of 30 days, after variance analysis taking birth weight as covariable, a larger growth of all the lambs born of the mothers of batch GRF2 was observed. This is shown in FIG. 3, which is an illustration similar to that of FIG. 4, enabling the weights of the lambs born of the mothers of the four batches to be compared at the age of 30 days. Table 1 below complements this FIG. 3."}, "dairy cows": {"test_system": "dairy cows", "details": "cited from earlier work; for milk production increased: milk adjusted to fat content 3.5%"}, "[5]": {"details": "1.5 mg s.c. twice daily from day 137 of gestation to littering"}},
  "note": "Entries after “also recorded” stand apart in the source; their conditions may differ. Like-named read-outs stand apart in the source and are kept apart here.",
  "data": [
    {"molecule": "hGRF (1-29): form of human growth hormone releasing factor containing 29 amino acids, obtained after deletion of the C-terminal portion", "values": [
      {"measurement": "discharge of growth hormone (GH)", "setting": "gravid ewes [1]; [5]", "value": "of large magnitude"},
      {"measurement": "duration of the discharge of growth hormone after the subcutaneous injection", "setting": "gravid ewes [1]; [5]", "value": "approximately 5 hours"},
      {"measurement": "GH response, day 146 versus day 138 of gestation", "setting": "gravid ewes [1]; mean over 15 ewes, FIG. 1", "value": "magnified as the term of the pregnancy is approached"},
      {"measurement": "milk production greater than that of the control ewes", "setting": "multiparous gravid ewes [2]; batch GRF1 (days 105 to 115 of gestation), fifth week of lactation", "value": "more than 23%"},
      {"measurement": "Milk production", "setting": "multiparous gravid ewes [2]; batch GRF1, week of lactation 1, FIG. 4, control 980 ± 70", "value": "1075 ± 50"},
      {"measurement": "Milk production", "setting": "multiparous gravid ewes [2]; batch GRF1, week of lactation 2, FIG. 4, control 950 ± 60", "value": "1090 ± 70"},
      {"measurement": "Milk production", "setting": "multiparous gravid ewes [2]; batch GRF1, week of lactation 3, FIG. 4, control 845 ± 50", "value": "1025 ± 60"},
      {"measurement": "Milk production", "setting": "multiparous gravid ewes [2]; batch GRF1, week of lactation 4, FIG. 4, control 760 ± 45", "value": "920 ± 60"},
      {"measurement": "Milk production", "setting": "multiparous gravid ewes [2]; batch GRF1, week of lactation 5, FIG. 4, control 720 ± 50", "value": "880 ± 50"},
      {"measurement": "Milk production", "setting": "multiparous gravid ewes [2]; batch GRF2, week of lactation 1, FIG. 5, control 1020 ± 50", "value": "1050 ± 60"},
      {"measurement": "Milk production", "setting": "multiparous gravid ewes [2]; batch GRF2, week of lactation 2, FIG. 5, control 1025 ± 60", "value": "1010 ± 50"},
      {"measurement": "Milk production", "setting": "multiparous gravid ewes [2]; batch GRF2, week of lactation 3, FIG. 5, control 975 ± 50", "value": "855 ± 50"},
      {"measurement": "Milk production", "setting": "multiparous gravid ewes [2]; batch GRF2, week of lactation 4, FIG. 5, control 925 ± 50", "value": "840 ± 40"},
      {"measurement": "Milk production", "setting": "multiparous gravid ewes [2]; batch GRF2, week of lactation 5, FIG. 5, control 860 ± 50", "value": "745 ± 60"},
      {"measurement": "birth weight of the lambs born of treated mothers", "setting": "gravid ewes [3]; batch B, n=20, 1.5 mg s.c. twice daily day 137 to littering, control batch A 3.61±0.14 kg", "value": "4.17 ± 0.13", "unit": "kg"},
      {"measurement": "effect on dates of the lambing (parturition)", "setting": "gravid ewes [3]; in vivo", "value": "not modifying the dates of the lambing"},
      {"measurement": "Weight of the Lambs at 30 days", "setting": "multiparous gravid ewes [4]; batch GRF1+2: day 105 to 115 and day 137 to littering, 10 lambs", "value": "13 ± 0.66", "unit": "kg"},
      {"measurement": "birth weight of the lambs versus control", "setting": "multiparous gravid ewes [4]; batch GRF1+2: day 105 to 115 and day 137 to littering, twin lambs n=12", "value": "substantially similar"},
      {"measurement": "Weight of the Lambs at 30 days", "setting": "multiparous gravid ewes [4]; batch GRF1: day 105 to 115 of gestation, 14 lambs", "value": "13.6 ± 0.5", "unit": "kg"},
      {"measurement": "birth weight of the lambs versus control", "setting": "multiparous gravid ewes [4]; batch GRF1: day 105 to day 115 of gestation, twin lambs n=16", "value": "substantially similar; also recorded: of the same order"},
      {"measurement": "mean birth weight of the lambs", "setting": "multiparous gravid ewes [4]; batch GRF2: day 137 of gestation to littering, twin lambs n=12, control 2.91 kg", "value": 3.54, "unit": "kg"},
      {"measurement": "Weight of the Lambs at 30 days", "setting": "multiparous gravid ewes [4]; batch GRF2: day 137 to littering, 12 lambs", "value": "14.73 ± 0.53", "unit": "kg"},
      {"measurement": "excess of lamb growth at 30 days over lambs of control mothers", "setting": "multiparous gravid ewes [4]; ewes treated between days 105 and 115 of gestation (GRF1)", "value": "~11", "unit": "%"},
      {"measurement": "excess of lamb weight at 30 days over the controls", "setting": "multiparous gravid ewes [4]; mothers treated between days 137 and 147 of gestation (GRF2), corrected for birth weight", "value": 21, "unit": "%"}
    ]},
    {"molecule": "B1", "values": [
      {"measurement": "milk production increased", "setting": "dairy cows; 12.5 mg bGH per day", "value": 16, "unit": "%"},
      {"measurement": "nutritional efficiency (kg milk with 3.5% fat per kg dry matter ingested) increased", "setting": "dairy cows; 12.5 mg bGH/day for a long period", "value": 13.8, "unit": "%"},
      {"measurement": "milk production increased", "setting": "dairy cows; 25 mg bGH per day", "value": 19, "unit": "%"},
      {"measurement": "nutritional efficiency (kg milk with 3.5% fat per kg dry matter ingested) increased", "setting": "dairy cows; 25 mg bGH/day for a long period", "value": 16.8, "unit": "%"},
      {"measurement": "milk production increased", "setting": "dairy cows; 50 mg bGH per day", "value": 22, "unit": "%"},
      {"measurement": "nutritional efficiency (kg milk with 3.5% fat per kg dry matter ingested) increased", "setting": "dairy cows; 50 mg bGH/day for a long period", "value": 15.3, "unit": "%"}
    ]}
  ]
}
